Reference: PubChem BioAssay (NCI)
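Dose response: 5 concentrations. Exposure: 48 h. Format: 96-well plates. Endpoint: linear interpolation; highest concentration if not reached. At the TGI there is no net growth.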

Assays:
Experiment in all cases: inhibition of tumour cell growth, NCI panel, 48 h
[1] = tested on: HOP-62 NSCLC
[2] = tested on: U251 CNS
[3] = tested on: SW-620 colon
[4] = tested on: CCRF-CEM leukemia
[5] = tested on: T-47D breast
[6] = tested on: HL-60(TB) leukemia
[7] = tested on: TK-10 renal
[8] = tested on: SNB-19 CNS
[9] = tested on: SNB-75 CNS
[10] = tested on: IGROV1 ovarian

Structure (SMILES)	TGI [1] [µM]	TGI [2] [µM]	TGI [3] [µM]	TGI [4] [µM]	TGI [5] [µM]	TGI [6] [µM]	TGI [7] [µM]	TGI [8] [µM]	TGI [9] [µM]	TGI [10] [µM]
COc1cccc(NC(=O)CC(=O)NN)c1	> 100	> 100	> 100	> 100	> 100	> 100	> 100	> 100	> 100	> 100
CC1=NN(c2nc(N)nc(CO)n2)C(C)(C)C1	> 100	> 100	> 100	> 100	> 100	> 100	> 100	> 100	> 100	> 100
CCOC(=O)C(O)(CC1=NC(C(=O)OC)(C(=O)OC)C(c2cccc(C=O)c2)O1)C(=O)OCC (centres undefined)	> 100	> 100	> 100	> 100	> 100	> 100	> 100	> 100	> 100	> 100
CCOC(=O)Cc1c(C(=O)OCC)[n+](=O)c2cc(Cl)c(Cl)cc2n1[O-]	4.27	9.67	4.08	6.29	6.76	5.74	2.83	11.9	4.63	2.35
Cc1ccc(C2=CC(=O)/C(=C\C(=O)c3ccc(Br)cc3)O2)c(C)c1	> 66.7	43.9		> 100	43.1	> 100	15.9	> 49.1	28.2	40.4
CCOC(=O)C(C)c1nc2cc(F)c(F)cc2[nH]c1=O (centres undefined)	> 100	> 100	> 100	> 100	> 100	> 100	> 100	> 100	> 100	
Cc1ccc(C(=O)N/N=C(\N=Nc2ccc([N+](=O)[O-])cc2)c2ccc(N(CCC#N)CCC#N)cc2C)cc1	> 100	> 100	> 100	> 100	83.4	65.7	> 100	> 100	> 100	> 100
C[N+]1(C)CCCC(C#N)(c2ccccc2)CC1 (centres undefined)	> 100	> 100	> 100	> 100	> 100	> 100	> 100	> 100	> 100	> 100
Cc1ccc(/C=c2\cc3oc(=O)c4cccc(c4-3)c2=O)cc1	> 100	> 100	> 100	68.2	> 100	> 100	> 100	> 100	> 100	> 100
Cc1ccc(S(=O)(=O)N/N=C2\C=CC3(CC2)C(=O)N(I)c2ccccc23)cc1 (centres undefined)	> 100	> 100	> 100	> 100	> 100		> 100	> 100	> 100	
CN(C)C(=O)C(F)(F)C(c1ccccc1)C1C(=O)N(C)C(=O)N(C)C1=O (centres undefined)	> 100	> 100	> 100	> 100	> 100		> 100	> 100	> 100	
O/N=C\c1c2c(cc3c1CCC3)CCC2	> 100	> 100	> 100	> 100	> 100	> 100	> 100	> 100	> 100	> 100
O=C(NNC(=O)c1ccco1)c1ccco1	> 100	> 100	> 100	> 100	> 100	> 100	> 100	> 100	> 100	> 100
CSc1cc(Cl)c(C)cc1S(=O)(=O)NC(=O)NNc1ccc(C)cc1	> 100	> 100	> 100	> 100	> 100			> 100	> 100	> 100
Nc1cccc(-c2cc(=O)c3cc4c(cc3[nH]2)OCO4)c1	29.2	24.9	> 100	> 100	> 100	> 100	> 100	> 48.5	> 100	
COC(=O)c1ccccc1CC1Cc2c(C)ccc(C)c2C1=O (centres undefined)	> 100	> 100	> 100	52.8	87.2	55.6	71.2	> 100	> 100	> 100
COc1ccc(OC)c2c(C(C)=O)cccc12	> 100	> 100	> 100	> 100	> 100	> 100	> 100	> 100		> 100
CSc1c(C(C)=O)c(O)n(-c2ccc(C)cc2)c(=O)c1C#N		> 100	> 100	> 100	> 100	> 100	> 100	> 100	> 100	> 100
O=C1c2cc3c(cc2NC(c2ccccc2F)C1O)OCO3 (centres undefined)	> 66.1	> 68	> 100	97.7	> 100		73.1	> 56.1	56.9	> 100
CO[C@@]12C[C@H](CNC(=O)c3ccc[nH]3)O[C@@H]1NC(=O)N2	> 100	> 100	> 100		> 100	> 100	> 100	> 100	> 100	> 100
CC1CC(=O)N(N(C)C)C2(C#N)C(=O)N=C(N)C12C#N (centres undefined)	> 100	> 100	> 100	67.5	> 100	51.7	> 100	> 100	> 100	> 100
CC(C)(C)OC(=O)Cn1ncn(NC(=O)Cc2ccccc2)c1=S	> 10	> 10	> 10	> 10	> 10		> 10	> 10	> 10	> 10

Structure (SMILES)	TGI [1] [µM]	TGI [2] [µM]	TGI [3] [µM]	TGI [4] [µM]	TGI [5] [µM]	TGI [6] [µM]	TGI [7] [µM]	TGI [8] [µM]	TGI [9] [µM]	TGI [10] [µM]
CC(=O)Oc1ccc2cc(Oc3cc(Cl)c(Cl)cc3Cl)c(=O)oc2c1	36.2	32.5	28	37.9	> 100	68.8	74.5	81.2	44.6	32.1
CC(=O)OC1CCn2c1nc1cc([N+](=O)[O-])c(C)cc12 (centres undefined)		> 100	> 100	> 100	> 100	> 100		> 100	> 100	> 100
CC(=O)OCC1OC(OCCCOP(=O)(OCCC#N)OCC2OC(n3cnc4c(N)ncnc43)C(OC(=O)c3ccccc3)C2OC(=O)c2ccccc2)C(OC(C)=O)C(OC(C)=O)C1OC(C)=O (centres undefined)	> 100	> 100	> 100	> 100	> 100	> 100	> 100	> 100	> 100	> 100
COC(=O)[C@@H]1c2c(oc3cc(CO)cc(O)c3c2=O)C=C[C@H]1O	40	22.5	10.4	25	9.4		6.8	33.5	31.7	26.2
CN(C)C(=O)C(F)(F)C(c1ccccc1Br)C1C(=O)N(C)C(=O)N(C)C1=O (centres undefined)	> 100	> 100	> 100	> 100	> 100		> 100	> 100	> 100	
NC(Cc1ccccc1)C(=O)OCN1C(=O)C2C3C=CC(C2C1=O)C1C(=O)N(COC(=O)C(N)Cc2ccccc2)C(=O)C31 (centres undefined)	> 100	> 100	77.3	49.7	> 100	37.8	> 100	> 100		> 100
CCOC(=O)C1=C(O)CC(=O)N=C1N1CCCC1	> 100	> 100	> 100	> 100	> 100	> 100	> 100	> 100		> 100
Nc1nc(N)c2nc(CN(C=O)c3ccc(C(=O)O)cc3)cnc2n1	> 100	> 100	> 100	> 100	> 100	> 100	> 100	> 100	> 100	> 100
CN(C)S(=O)(=O)c1ccc2[nH]c(O)c(C3=Nc4ccccc4C3=O)c2c1	47.2	24.9	> 100	> 100	> 100		40	42.6	10.3	27.4
COC(=O)CN1CCN(c2cccc3c2CCCC3)CC1	> 100	> 100	> 100	> 100	> 100	> 100	> 100	> 100	> 100	> 100
CCOC(=O)N1c2ccccc2C(C)=CC(C)C1C (centres undefined)	> 100		> 100	> 100	> 100	57.2	51	> 100	69	> 100
Clc1cc(N/N=C(\c2ccccc2)c2ccccn2)ncn1	0.665	> 100	> 100	1.3	45.2		> 100	> 100	> 100	89.9
CCOC(=O)[C@@]12C[C@](/C=C/OC)(O[Si](C)(C)C)[C@@]13c1cc(OC)c(OC)cc1CCN3C(=O)C2=O	> 100	> 100	> 100	> 100	> 100		> 100	> 100	> 100	> 100
O=C(/C=C/c1ccc(-c2ccccc2)cc1)NCc1ccc(C(=O)NCCc2ccccc2)cc1	> 100	> 100	> 100	39.1	> 100		> 100	> 100	> 100	> 100
NC(CCC(=O)c1ccccn1)C(=O)O (centres undefined)	> 100	> 100	> 100	> 100	> 100	> 100	> 100	> 100		> 100
CNC(=O)[C@H](Cc1ccccc1)NC(=O)N(CCC#N)CCN(C(=O)N[C@@H](Cc1ccccc1)C(=O)OC)c1ccccc1	> 100	> 100	> 100	> 100	> 100	> 100	> 100	> 100	> 100	
C=C1OC2OC(C)C(NC(=O)OCC(Cl)(Cl)Cl)C(OC(C)=O)C2O1 (centres undefined)	> 100	> 100	> 100	> 100	> 100	> 100	> 100	> 100		> 100
C[N+](C)(CCNc1ccc(NCC[N+](C)(C)Cc2ccc([N+](=O)[O-])cc2)c2c1C(=O)c1c(O)ccc(O)c1C2=O)Cc1ccc([N+](=O)[O-])cc1	> 50	> 50	> 50	> 50	> 50	> 50	> 50		> 50	> 50
CCOC(=O)c1ccc(N(CCOS(C)(=O)=O)CCOS(C)(=O)=O)cc1		> 100	> 100	77.6	> 100	> 100	> 100	> 100		> 100
S=C(NCc1ccccn1)N/N=C/c1ccccn1		> 60.2	> 100	< 0.011	> 61.5	< 0.01	> 100	28.6	> 100	
CC(=O)N[C@@H](Cc1ccc(O)cn1)C(=O)NCc1ccc(Cl)cc1	> 100	> 100	> 100	> 100	> 100	> 100	> 100	> 100		> 100
CC1OC(OC2C(O)CC(OC3C(O)CC(OC4CCC5(C)C(CCC6C5CCC5(C)C(C7=CC(=O)OC7)C(O)CC65O)C4)OC3C)OC2C)CC(O)C1O (centres undefined)	2.66	1.31		> 100	4.72	1.23	0.787	3.49	5.37	9.81
